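Where inhibition never reached the appropriate level, the endpoint shown equals the highest concentration tested. Otherwise, values were interpolated linearly from a five-concentration, 48-hour dose response in 96-well plates. TGI: concentration producing complete growth inhibition.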
Tests used:
Test in all cases: NCI anticancer screen, dose series, 48 h
786-0 renal = system: 786-0 renal
A549 NSCLC = system: A549 NSCLC
ACHN renal = system: ACHN renal
CCRF-CEM leukemia = system: CCRF-CEM leukemia
COLO 205 colon = system: COLO 205 colon
DMS 114 small cell lung = system: DMS 114 small cell lung
DMS 273 small cell lung = system: DMS 273 small cell lung
EKVX NSCLC = system: EKVX NSCLC
HCT-116 colon = system: HCT-116 colon
HCT-15 colon = system: HCT-15 colon
HL-60(TB) leukemia = system: HL-60(TB) leukemia
HOP-18 NSCLC = system: HOP-18 NSCLC
HOP-62 NSCLC = system: HOP-62 NSCLC
HT29 colon = system: HT29 colon
K-562 leukemia = system: K-562 leukemia
KM20L2 colon = system: KM20L2 colon
LOX IMVI melanoma = system: LOX IMVI melanoma
LXFL 529 NSCLC = system: LXFL 529 NSCLC
M14 melanoma = system: M14 melanoma
M19-MEL melanoma = system: M19-MEL melanoma
MALME-3M melanoma = system: MALME-3M melanoma
MOLT-4 leukemia = system: MOLT-4 leukemia
NCI-H226 lung = system: NCI-H226 lung
NCI-H23 lung = system: NCI-H23 lung
NCI-H460 lung = system: NCI-H460 lung
NCI-H522 lung = system: NCI-H522 lung
OVCAR-4 ovarian = system: OVCAR-4 ovarian
OVCAR-8 ovarian = system: OVCAR-8 ovarian
RPMI-8226 leukemia = system: RPMI-8226 leukemia
RXF 393 renal = system: RXF 393 renal
SF-268 CNS = system: SF-268 CNS
SF-295 CNS = system: SF-295 CNS
SK-MEL-2 melanoma = system: SK-MEL-2 melanoma
SK-MEL-28 melanoma = system: SK-MEL-28 melanoma
SK-MEL-5 melanoma = system: SK-MEL-5 melanoma
SK-OV-3 ovarian = system: SK-OV-3 ovarian
SN12C renal = system: SN12C renal
SNB-19 CNS = system: SNB-19 CNS
SNB-75 CNS = system: SNB-75 CNS
SNB-78 CNS = system: SNB-78 CNS
SR leukemia = system: SR leukemia
SW-620 colon = system: SW-620 colon
TK-10 renal = system: TK-10 renal
U251 CNS = system: U251 CNS
UACC-257 melanoma = system: UACC-257 melanoma
UACC-62 melanoma = system: UACC-62 melanoma
UO-31 renal = system: UO-31 renal
XF 498 CNS = system: XF 498 CNS
A498 renal = system: A498 renal
CAKI-1 renal = system: CAKI-1 renal
DLD-1 colon = system: DLD-1 colon
HCC-2998 colon = system: HCC-2998 colon
HOP-92 NSCLC = system: HOP-92 NSCLC
IGROV1 ovarian = system: IGROV1 ovarian
KM12 colon = system: KM12 colon
OVCAR-3 ovarian = system: OVCAR-3 ovarian
OVCAR-5 ovarian = system: OVCAR-5 ovarian
SF-539 CNS = system: SF-539 CNS

O=C(CSc1nnc(-c2ccc(N=Cc3ccc(Cl)cc3)cc2)o1)Nc1ccccc1
TGI (786-0 renal): 47 µM
TGI (A549 NSCLC): > 100 µM
TGI (ACHN renal): > 100 µM
TGI (CCRF-CEM leukemia): > 100 µM
TGI (COLO 205 colon): > 100 µM
TGI (DMS 114 small cell lung): > 100 µM
TGI (DMS 273 small cell lung): 70.6 µM
TGI (EKVX NSCLC): > 100 µM
TGI (HCT-116 colon): 31.1 µM
TGI (HCT-15 colon): > 100 µM
TGI (HL-60(TB) leukemia): > 100 µM
TGI (HOP-18 NSCLC): > 100 µM
TGI (HOP-62 NSCLC): > 100 µM
TGI (HT29 colon): > 100 µM
TGI (K-562 leukemia): > 100 µM
TGI (KM20L2 colon): > 100 µM
TGI (LOX IMVI melanoma): 36.4 µM
TGI (LXFL 529 NSCLC): > 100 µM
TGI (M14 melanoma): > 100 µM
TGI (M19-MEL melanoma): > 100 µM
TGI (MALME-3M melanoma): > 100 µM
TGI (MOLT-4 leukemia): > 100 µM
TGI (NCI-H226 lung): > 100 µM
TGI (NCI-H23 lung): > 100 µM
TGI (NCI-H460 lung): > 100 µM
TGI (NCI-H522 lung): 35.5 µM
TGI (OVCAR-4 ovarian): > 100 µM
TGI (OVCAR-8 ovarian): > 100 µM
TGI (RPMI-8226 leukemia): > 100 µM
TGI (RXF 393 renal): 96.9 µM
TGI (SF-268 CNS): > 100 µM
TGI (SF-295 CNS): > 100 µM
TGI (SK-MEL-2 melanoma): > 100 µM
TGI (SK-MEL-28 melanoma): > 100 µM
TGI (SK-MEL-5 melanoma): > 100 µM
TGI (SK-OV-3 ovarian): > 100 µM
TGI (SN12C renal): > 100 µM
TGI (SNB-19 CNS): > 100 µM
TGI (SNB-75 CNS): > 100 µM
TGI (SNB-78 CNS): > 100 µM
TGI (SR leukemia): > 100 µM
TGI (SW-620 colon): > 100 µM
TGI (TK-10 renal): > 100 µM
TGI (U251 CNS): > 100 µM
TGI (UACC-257 melanoma): > 100 µM
TGI (UACC-62 melanoma): > 100 µM
TGI (UO-31 renal): > 100 µM
TGI (XF 498 CNS): > 100 µM

O=C(/C=C\c1cccc2ccccc12)c1ccc(Br)cc1
TGI (786-0 renal): 33.7 µM
TGI (A498 renal): > 100 µM
TGI (A549 NSCLC): > 100 µM
TGI (ACHN renal): 31.2 µM
TGI (CAKI-1 renal): > 100 µM
TGI (CCRF-CEM leukemia): 50.6 µM
TGI (COLO 205 colon): 91.6 µM
TGI (DLD-1 colon): 38.4 µM
TGI (DMS 114 small cell lung): 32.2 µM
TGI (DMS 273 small cell lung): 34.5 µM
TGI (EKVX NSCLC): 52.1 µM
TGI (HCC-2998 colon): 31.7 µM
TGI (HCT-116 colon): 30.3 µM
TGI (HCT-15 colon): 34.7 µM
TGI (HL-60(TB) leukemia): 43 µM
TGI (HOP-18 NSCLC): 43.4 µM
TGI (HOP-62 NSCLC): > 100 µM
TGI (HOP-92 NSCLC): 85.6 µM
TGI (HT29 colon): 35.3 µM
TGI (IGROV1 ovarian): 46.1 µM
TGI (K-562 leukemia): 44.2 µM
TGI (KM12 colon): 28.3 µM
TGI (KM20L2 colon): 32.2 µM
TGI (LXFL 529 NSCLC): 32.8 µM
TGI (M14 melanoma): 32 µM
TGI (M19-MEL melanoma): 33.9 µM
TGI (MALME-3M melanoma): 81.6 µM
TGI (MOLT-4 leukemia): 82.2 µM
TGI (NCI-H226 lung): > 100 µM
TGI (NCI-H23 lung): > 100 µM
TGI (NCI-H460 lung): 37.2 µM
TGI (NCI-H522 lung): 35.3 µM
TGI (OVCAR-3 ovarian): 34.4 µM
TGI (OVCAR-4 ovarian): 35.5 µM
TGI (OVCAR-5 ovarian): 47.4 µM
TGI (OVCAR-8 ovarian): 33 µM
TGI (RPMI-8226 leukemia): 45.9 µM
TGI (SF-268 CNS): 53.1 µM
TGI (SF-295 CNS): 46.5 µM
TGI (SF-539 CNS): 41.9 µM
TGI (SK-MEL-28 melanoma): 27.7 µM
TGI (SK-MEL-5 melanoma): 38.7 µM
TGI (SK-OV-3 ovarian): 93.6 µM
TGI (SN12C renal): > 100 µM
TGI (SNB-19 CNS): 61.1 µM
TGI (SNB-75 CNS): 56.3 µM
TGI (SNB-78 CNS): 41.5 µM
TGI (SW-620 colon): 24.4 µM
TGI (TK-10 renal): > 100 µM
TGI (U251 CNS): 29.6 µM
TGI (UACC-257 melanoma): 51.9 µM
TGI (UACC-62 melanoma): 29.3 µM
TGI (UO-31 renal): 42.5 µM

Source: PubChem BioAssay (NCI)
